Data reported in patent US20210138006A1, “Systems, Methods, and Compositions for Treating or Preventing Bacterial Infection and for Reducing or Preventing Bacterial Overpopulation” (BRIGHAM YOUNG UNIVERSITY, priority 2018, published 2021).

Test system: honeybees (Apis mellifera)
Assay type: in vivo
Settings: after fall inspection
From the text: Treatment Study: This study provides disclosure relating to the potential effectiveness of using phages, such as PL phages, when treating healthy beehives that are not at risk for AFB.
This combined not-at-risk preventative and safety treatment study using PL phages occurred when 96 beehives were observed and assigned to one of three groups to either be control hives, hives treated preventative PL phages, or hives treated with preventative Tylan antibiotic.
Study Design: Test animals—A total of 96 colonies (hives) of honeybees (Apis mellifera) were previously established in two near-by apiaries. Each of the colonies had to meet the following four criteria: a viable laying queen, contain approximately 40,000 or more adult worker bees, have uncapped brood, and have no visible signs of American Foulbrood. All 96 hives met the criteria and were included in the study.
Route of administration: Oral.
Treatment: PL phage cocktail diluted in sugar water.
Objective and design: The objective was to determine the comparative health of beehives left without a treatment to hives prophylactically treated with PL phages or Tylan antibiotic for the prevention of AFB in a longitudinal study.
All 96 beehives were inspected in spring and fall using a 3-brood rack approach, wherein observation of three full brood racks constituted a complete inspection to look for AFB. Hives that looked unusual were inspected beyond the 3-brood racks. For each hive observation upon signs of AFB, the colonies were to be rated on a 0-3 scale based on a modification of the method proposed by Hitchcock et al. (1970). Frames were rated as follows:
For each hive inspected, other observations were also noted, such as signs of chalkbrood, European Foulbrood (EFB), apparent mite infestation, queen health (based on laying patterns, etc.), other obvious disorders, and any colony loss.
Results: AFB was not detected in any hive in any group throughout the study. […] For this study, a hive was counted as “diseased” if it had chalkbrood, had European Foulbrood, or struggled to thrive. […]

CC[C@H]1OC(=O)C[C@@H](O)[C@H](C)[C@@H](O[C@@H]2O[C@H](C)[C@@H](O[C@H]3C[C@@](C)(O)[C@@H](O)[C@H](C)O3)[C@H](N(C)C)[C@H]2O)[C@@H](CC=O)C[C@@H](C)C(=O)/C=C/C(C)=C/[C@@H]1CO[C@@H]1O[C@H](C)[C@@H](O)[C@@H](OC)[C@H]1OC [Tylan]
% Healthy Hives (positive health survival rate) (32 hives per group, control 90.6%): 62.5%
Diseased or Dead Hives (of 32 hives per group, control 3): 12
hives remained healthy (of 32 hives per group, control 29): 20
